Assay results taken from ChEMBL document CHEMBL1806423, “Cytotoxic 1,2-dialkynylimidazole-based aza-enediynes: aza-Bergman rearrangement rates do not predict cytotoxicity” (J Med Chem, 2011).
Activity calls are given as the source filed them. The rule behind the calls is not given here.

Legend:
A549 = experiment: Cytotoxicity against human A549 cells after 72 hrs by alamar blue assay; type: functional, cell-based; settings: A549, 72 h
Albumin = Albumin (Bos taurus, UniProt P02769); experiment: Induction of cleavage of bovine serum albumin at 500 uM after 16 hrs using Coomassie blue by SDS-PAGE; settings: cattle
Nucleic Acid = experiment: Induction of DNA cleavage of supercoiled phiX174 plasmid DNA assessed as relaxed DNA at 100 uM after 16 hrs by gel electrophoresis; type: nucleic-acid assay; settings: Enterobacteria phage phiX174
[1] = Thermal stability of the compound assessed as half life at 110 degC; type: physicochemical

Sequence of Albumin (P02769 whole entry): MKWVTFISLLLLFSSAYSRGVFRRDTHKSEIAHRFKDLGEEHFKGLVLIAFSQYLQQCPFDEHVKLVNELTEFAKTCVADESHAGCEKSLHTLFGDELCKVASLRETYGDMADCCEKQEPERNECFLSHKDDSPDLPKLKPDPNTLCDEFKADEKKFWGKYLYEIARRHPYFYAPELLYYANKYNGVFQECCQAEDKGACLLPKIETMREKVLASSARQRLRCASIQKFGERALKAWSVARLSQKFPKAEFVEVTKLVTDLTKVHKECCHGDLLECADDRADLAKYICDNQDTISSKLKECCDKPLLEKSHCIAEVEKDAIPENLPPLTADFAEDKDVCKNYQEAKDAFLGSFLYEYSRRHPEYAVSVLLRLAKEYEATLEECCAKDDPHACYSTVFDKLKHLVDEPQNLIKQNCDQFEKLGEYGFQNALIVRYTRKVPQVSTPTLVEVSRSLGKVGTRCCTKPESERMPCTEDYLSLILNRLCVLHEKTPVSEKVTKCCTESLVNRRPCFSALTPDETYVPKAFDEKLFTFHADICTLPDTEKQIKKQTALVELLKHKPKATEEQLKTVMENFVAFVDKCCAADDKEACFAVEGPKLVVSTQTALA

Activity (Albumin) | Activity (Nucleic Acid) | half-life [1] | Structure (SMILES) | IC50 (A549)
– | – | – | COc1ccc(C#Cc2nccn2C)cc1 | > 15 µM
– | – | – | OCC#Cc1nccn1C#CCO | 1.9 µM
– | – | – | COc1ccc(C#Cc2nccn2/C=C\Sc2ccccc2)cc1 | 10.1 µM
– | – | – | C#Cc1nc2ccccc2n1C#C | 2 µM
– | – | – | C#Cn1c(C#Cc2ccc(OC)cc2)nc2ccccc21 | 2.9 µM
– | – | – | C(#Cn1ccnc1)c1ccccc1 | 9.2 µM
– | – | – | C#Cn1cc(-c2ccc(F)cc2)nc1C#CCCO | 2.6 µM
– | – | – | C(#Cn1ccnc1CCc1ccccc1)c1ccccc1 | > 15 µM
– | – | – | C#Cn1ccnc1C#Cc1cc(C(F)(F)F)cc(C(F)(F)F)c1 | 2.5 µM
Not Active | inactive | – | C#Cc1nc(-c2ccc(F)cc2)cn1C#C | 2.6 µM
Not Active | inactive | 17 h | C#Cn1ccnc1C#Cc1ccc(OC)cc1 | 0.5 µM
– | – | 16 h | C#Cn1ccnc1C#Cc1ccc(C(C)(C)C)cc1 | 2.5 µM
– | – | – | C#Cn1ccnc1C#Cc1ccc(C(C)=O)cc1 | 0.5 µM
– | – | – | C#Cc1nc(-c2ccccc2)cn1C#C | 2.5 µM
– | – | – | C#Cn1cnc(-c2ccccc2)c1 | 1.1 µM
Not Active | inactive | 32 h | C#Cn1ccnc1C#Cc1ccc([N+](=O)[O-])cc1 | 0.12 µM
– | – | – | C#Cn1cc(-c2ccccc2)nc1C#Cc1ccc(OC)cc1 | 2 µM
– | – | – | C#Cn1ccnc1C#Cc1ccccc1 | 6 µM
– | – | – | C#Cc1nccn1C#Cc1ccccc1 | 5 µM
– | – | – | C#Cn1ccnc1C#Cc1ccc(C(F)(F)F)cc1 | 6 µM
– | – | – | C#Cn1ccnc1C#CCOC | 1 µM
